This is an account of results in paper PMC7823661 (Viruses, 2020).

Molecules are shown by their SMILES. Where a name gives a salt, the structure may show the parent alone.

Data set [1] can be described thus: Cytotoxicity assay (PrestoBlue) in mock-infected cervical cells. It counts as cell-based. The note with it: human.
Data set [2] is described as follows: Cytotoxicity assay (PrestoBlue) in mock-infected Vero cells. The note with it: African green monkey, Vero cells (kidney). It counts as cell-based.
The test system of data set [3] is Brazilian ZIKV strain (ZIKV-BR) in cervical cells. As to the kind of experiment: Viral genome detection by RT-qPCR in supernatants of infected cervical cells. It counts as cell-based, Zika virus. The note with it: supernatant of cervical cells; for reduction of viral load: 12 µM, compared to control; for ZIKV genome copies/mL: MOI 10, 12 µM, 48 h, control 6.7 ± 0.7 × 10^8. (In general: Real-time PCR tracks product formation cycle by cycle.)

Data set [4] shares this test system. As to the kind of experiment: Plaque-forming reduction assay, supernatants of infected cervical cells. It is filed as cell-based, Zika virus. As to conditions: for inhibition at 6 µM / inhibition at 12 µM / inhibition at 25 µM / EC50 / EC90: Zika virus; for inhibition at 6 µM: MOI 10, 6 µM; for inhibition at 6 µM / inhibition at 12 µM / inhibition at 25 µM: read-out: Cervical cells PFR (%); for inhibition at 25 µM: MOI 10, 25 µM; for EC50 / EC90: plaque-forming reduction, MOI 10, 48 h.

Data set [5] deals with Brazilian ZIKV strain (ZIKV-BR) in Vero cells. As to the kind of experiment: Plaque-forming reduction assay, supernatants of infected Vero cells. As to conditions: MOI 1, 12 µM, 48 h; for inhibition at 12 µM: Zika virus, read-out: Vero cells PFR (%). It is filed as cell-based, Zika virus.
Data set [6] concerns Brazilian ZIKV strain (ZIKV-BR) in cervical cells. It counts as cell-based, Zika virus. The note with it: ZIKV-BR MOI 10, 12 µM, 48 h, versus 0.12% DMSO.
The test system of data set [7] is ZIKV strain MR766 in Vero cells. Also noted: method as in earlier work. The note with it: cited from earlier work.
Data set [8] deals with baby hamster kidney cells (BHK-21). As to conditions: cited from earlier work.
Another data set deals with ZIKV-BR in Vero cells. The note with it: read-out: concentration giving 50% of viral inhibition, MOI 0.1; cited from earlier work.
Data set [9] has as its system P. falciparum W2-chloroquine-resistant clone. As to conditions: in vitro, read-out: IC50 antiplasmodial; cited from earlier work.
The mark [10] stands for this setting: C33-A cervical epithelial cells (mock-infected), mock-infected cervical cells, 48 h, PrestoBlue, read-out: CC50 (μM)/48 h Cervical.

Consider `Cc1ccc(S(=O)(=O)NCCCNc2ccnc3cc(Cl)ccc23)cc1` [C-Sd1, N-(3-((7-chloroquinolin-4-yl)amino)propyl)-4-methyl-benzenesulfonamide], for which the CC50 at 48 h in data set [1] (setting [10]) worked out at 130 ± 2 µM. In [2], this molecule showed a CC50 at 48 h of 97 ± 0.5 µM. Moreover, in data set [3], the “reduction of viral load” value was found to be 2 logs and the “ZIKV genome copies/mL” value was 1.0 ± 0.1 × 10^6 copies/mL. Further, in data set [4] (48 h, 48 h), the inhibition at 6 µM amounted to 75.3 ± 1.3% and the inhibition at 25 µM turned out to be 100%. In addition, in [4] (48 h, MOI 10, 12 µM, 48 h), the inhibition at 12 µM turned out to be 94.2 ± 0.5%. For the same molecule, in data set [4], the EC50 was 3.6 ± 0.2 µM and the EC90 was determined as 9.6 ± 0.6 µM. In data set [5], the inhibition at 12 µM stood at 100%.
For the molecule `O=S(=O)(NCCCNc1ccnc2cc(Cl)ccc12)c1ccc(Br)cc1` [C-Sd2, 4-Bromo-N-(3-((7-chloroquinolin-4-yl)amino)propyl)-benzenesulfonamide], the CC50 at 48 h in data set [1] (setting [10]) is 112 ± 1.8 µM. The molecule further showed a CC50 at 48 h in data set [2] of 56.7 ± 0.4 µM. Besides, in data set [3], the “reduction of viral load” value turned out to be 2 logs and the “ZIKV genome copies/mL” value is 2.8 ± 0.4 × 10^6 copies/mL. Besides, in data set [4] (48 h, 48 h), the inhibition at 6 µM was 80.8 ± 0.8% and the inhibition at 25 µM was 100%. Further, the inhibition at 12 µM in data set [4] (48 h, MOI 10, 12 µM, 48 h) amounted to 93.7 ± 0.3%. In [4], this molecule came in with an EC50 of 3.3 ± 0.2 µM and an EC90 of 7.8 ± 0.4 µM. In [5], the inhibition at 12 µM was determined as 100%.
Regarding `O=S(=O)(NCCCNc1ccnc2cc(Cl)ccc12)c1ccc(F)cc1` [C-Sd3, N-(3-((7-chloroquinolin-4-yl)amino)propyl)-4-fluorobenzenesulfonamide], in data set [1] (setting [10]), the CC50 at 48 h is greater than 200 µM. In data set [2], the CC50 at 48 h was determined as 141 ± 4.4 µM. In data set [3], the “reduction of viral load” value came to 2 logs and the “ZIKV genome copies/mL” value is listed as 4.9 ± 0.3 × 10^6 copies/mL. Moreover, in data set [4] (48 h, 48 h), the inhibition at 6 µM was 75 ± 1% and the inhibition at 25 µM is 100%. For the same molecule, in data set [4] (48 h, MOI 10, 12 µM, 48 h), the inhibition at 12 µM is 94 ± 0.7%. In [4], this molecule yielded an EC50 of 3.7 ± 0.1 µM and an EC90 of 10.1 ± 0.1 µM. For the same molecule, the inhibition at 12 µM in data set [5] came to 100%.
Take `O=S(=O)(NCCCCNc1ccnc2cc(Cl)ccc12)c1ccccc1` [C-Sd4, N-(4-((7-chloroquinolin-4-yl)amino)butyl)-benzenesulfonamide]: in [1] (setting [10]), the CC50 at 48 h is greater than 200 µM. In data set [2], this molecule registered a CC50 at 48 h of 143 ± 1.3 µM. Also, in data set [3], the “reduction of viral load” value came to 2 logs and the “ZIKV genome copies/mL” value is listed as 5.1 ± 0.6 × 10^6 copies/mL. Moreover, in [4] (48 h, 48 h), the inhibition at 6 µM turned out to be 56.6 ± 0.5% and the inhibition at 25 µM was found to be 100%. In addition, in [4] (48 h, MOI 10, 12 µM, 48 h), the inhibition at 12 µM was found to be 92.5 ± 0.2%. In [4], the EC50 is 5 ± 0.2 µM and the concentration for an effect of 90% (EC90) turned out to be 11.6 ± 0.1 µM. Also, the inhibition at 12 µM in [5] amounted to 100%.
On to `O=S(=O)(NCCCCNc1ccnc2cc(Cl)ccc12)c1ccc(Cl)cc1` [C-Sd5, 4-Chloro-N-(4-((7-chloroquinolin-4-yl)amino)butyl)-benzenesulfonamide], for which the CC50 at 48 h in data set [1] (setting [10]) is greater than 200 µM. The molecule also had a CC50 at 48 h in [2] of 52.2 ± 3.2 µM. For the same molecule, in [3], the “reduction of viral load” value is recorded as 3 logs and the “ZIKV genome copies/mL” value is reported as 2.0 ± 0.4 × 10^5 copies/mL. In data set [4], the “Cervical cells IS (selectivity index, CC50/EC50)” value is listed as greater than 62.5; the EC50 was determined as 3.2 ± 0.1 µM; the EC90 stood at 7.2 ± 0.1 µM. Besides, in data set [4] (48 h, 48 h), the inhibition at 6 µM is 82.3 ± 0.3% and the inhibition at 25 µM amounted to 100%. The inhibition at 12 µM in data set [4] (48 h, MOI 10, 12 µM, 48 h) came to 99.5 ± 0.2%. For the same molecule, in [5], the inhibition at 12 µM worked out at 100%.
As for `O=S(=O)(NCCCCNc1ccnc2cc(Cl)ccc12)c1ccc(Br)cc1` [C-Sd6, 4-Bromo-N-(4-((7-chloroquinolin-4-yl)amino)butyl)-benzenesulfonamide], in [1] (setting [10]), the CC50 at 48 h was greater than 200 µM. In data set [2], this molecule had a CC50 at 48 h of 43.2 ± 0.4 µM. In addition, in data set [6], the “reduction of infected cells” value is listed as “over 88%”. Besides, in data set [3], the “reduction of viral load” value is recorded as 3 logs and the “ZIKV genome copies/mL” value was 2.0 ± 0.2 × 10^5 copies/mL. In addition, in data set [4], the “Cervical cells IS (selectivity index, CC50/EC50)” value was greater than 60.6; the EC50 was 3.3 ± 0.1 µM; the EC90 is 7.4 ± 0.2 µM. Further, in data set [4] (48 h, 48 h), the inhibition at 6 µM turned out to be 82 ± 0.5% and the inhibition at 25 µM amounted to 100%. Further, in data set [4] (48 h, MOI 10, 12 µM, 48 h), the inhibition at 12 µM worked out at 94.8 ± 0.5%. Besides, in data set [5], the inhibition at 12 µM came to 100%.
`O=S(=O)(NCCCCNc1ccnc2cc(Cl)ccc12)c1ccc(F)cc1` [C-Sd7, N-(4-((7-chloroquinolin-4-yl)amino)butyl)-4-fluorobenzenesulfonamide]: the CC50 at 48 h in data set [1] (setting [10]) was greater than 200 µM. The CC50 at 48 h in [2] was 74.8 ± 1.2 µM. Also, in data set [3], the “reduction of viral load” value came out at 2 logs and the “ZIKV genome copies/mL” value is listed as 2.6 ± 0.5 × 10^6 copies/mL. In [4] (48 h, 48 h), the inhibition at 6 µM stood at 75.1 ± 0.8% and the inhibition at 25 µM worked out at 100%. Besides, in data set [4] (48 h, MOI 10, 12 µM, 48 h), the inhibition at 12 µM was 94.7 ± 0.7%. Moreover, in data set [4], the EC50 turned out to be 3.6 ± 0.1 µM and the 90% effect concentration (EC90) came out at 9.9 ± 0.2 µM. Moreover, in data set [5], the inhibition at 12 µM worked out at 100%.
With `OC(c1cc(C(F)(F)F)nc2c(C(F)(F)F)cccc12)C1CCCCN1` [Mefloquine, (R)-(2.8-bis(trifluoromethyl)quinolin-4-yl)((S)-piperidin-2-yl)methanol hydrochloride, reference compound], the CC50 at 48 h in data set [1] was 48.8 ± 0.2 µM. The molecule also displayed a CC50 at 48 h in data set [2] of 26.7 ± 0.9 µM. Moreover, the “reduction of infected cells” value in data set [6] is given as 96.3% ± 3.7. In addition, the “ZIKV genome copies/mL” value in data set [3] is 2.0 ± 0.6 × 10^5 copies/mL. In [4], the “Cervical cells IS (selectivity index, CC50/EC50)” value stood at 30.5; the EC50 came to 1.6 ± 0.1 µM; the EC90 came to 3.5 ± 0.2 µM. In data set [4] (MOI 10, 12 µM, 48 h), the “Cervical cells PFR (%)” value came out at 100%. Also, in data set [4] (48 h, 48 h), the inhibition at 6 µM was 97.7 ± 0.3%. Moreover, the inhibition at 12 µM in data set [4] (48 h, MOI 10, 12 µM, 48 h) was found to be 100%. Further, in data set [5], the “Vero cells PFR (%)” value is given as 100% and the inhibition at 12 µM is 100%. For the same molecule, the EC50 in data set [7] is 3.9 ± 0.2 µM. For the same molecule, the CC50 in data set [8] was 17.7 ± 3.5 µM.
As to `CCN(CC)CCCC(C)Nc1ccnc2cc(Cl)ccc12` (centres unmarked) [chloroquine], the EC50 in the data set with ZIKV-BR in Vero cells was 12 ± 3.2 µM.
Take `COc1ncnc(NS(=O)(=O)c2ccc(N)cc2)c1OC` [sulfadoxine]: the IC50 in [9] was greater than 15.5 µM.

For orientation: EC90 means the point of the concentration-response curve where the effect stands at 90%. The term IC50 denotes the concentration that inhibits the measured activity by half.
